Assay results from US7772256B2, “2-heteroaryl substituted benzothiophenes and benzofuranes 709” (Astrazeneca AB, priority 2007, dated 2010).

Molecular target: T1, synthetic Aβ 1-40 (Homo sapiens, UniProt P05067)
T1 construct: synthetic Aβ 1-40
Experiment: Competition binding assay ([3H]PIB as radioligand)
Settings: 2.7 nM [3H]PIB radioligand, phosphate buffer pH 7.5, 30 min room temperature
Description: Competition binding was performed in 384-well FB filter plates using synthetic Aβ 1-40 in 2.7 nM of [^3H]PIB (or another ^3H-labeled radioligand when so mentioned) in phosphate buffer at pH 7.5, by adding various concentrations of non-radioactive compounds originally dissolved in DMSO. The binding mixture was incubated for 30 min at room temperature, followed by vacuum filtration, and subsequentially by washing twice with 1% Triton-X100. Scintillation fluid was thereafter added to the collected Aβ 1-40 on the filter plate, and the activity of the bound remaining radioligand ([^3H]PIB or another ^3H-labeled radioligand) was measured using 1450 Microbeta from PerkinElmer. Specific binding was determined according to the competion binding assay described herein. The determined IC50's in the competion binding assays (using [^3H]PIB as radioligand) of compounds of the present invention are shown in Table 1.

T1 sequence (P05067 672-711 limits assumed): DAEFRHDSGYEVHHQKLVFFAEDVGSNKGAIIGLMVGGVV

Structure (SMILES) | IC50 [µM]
COc1ccc2nc(-c3cc4ccccc4o3)cn2c1 [2-(1-benzofuran-2-yl)-6-methoxyimidazo[1,2-a]pyridine] | 0.361
CNc1ccc(-c2cc3cc(O)ccc3o2)c(F)n1 [2-(2-Fluoro-6-methylamino-pyridin-3-yl)-benzofuran-5-ol] | 0.018
CNc1ncc(-c2cc3cc(O)ccc3o2)cc1F [2-(5-fluoro-6-methylamino-pyridin-3-yl)-benzofuran-5-ol] | 0.032
Nc1ccc(-c2cc3cc(O)ccc3o2)nn1 [2-(6-Amino-pyridazin-3-yl)-benzofuran-5-ol] | 2.71
CNc1ccc(-c2cc3cc(O)ccc3o2)nc1F [2-(6-Fluoro-5-methylamino-pyridin-2-yl)-benzofuran-5-ol] | 0.044
CNc1ccc(-c2cc3cc(O)ccc3o2)cn1 [2-(6-Methylamino-pyridin-3-yl)-benzofuran-5-ol] | 0.046
NC(=O)c1ccc(-c2cc3ccccc3o2)cn1 [5-(1-Benzofuran-2-yl)pyridine-2-carboxamide] | 0.019
NC(=O)c1ccc(-c2cc3ccccc3s2)cn1 [5-(1-benzothien-2-yl)pyridine-2-carboxamide] | 0.03
NC(=O)c1ccc(-c2cc3cc(O)ccc3o2)cn1 [5-(5-Hydroxy-benzofuran-2-yl)-pyridine-2-carboxylic acid amide] | 0.6
COc1ccc2oc(-c3ccc(C(N)=O)nc3)cc2c1 [5-(5-Methoxy-benzofuran-2-yl)-pyridine-2-carboxylic acid amide] | 0.061
NC(=O)c1ccc(-c2cc3cc(O)ccc3o2)nc1 [6-(5-Hydroxy-benzofuran-2-yl)-nicotinamide] | 0.043
COc1ccc2oc(-c3ccc(C(N)=O)cn3)cc2c1 [6-(5-Methoxy-benzofuran-2-yl)-nicotinamide] | 0.033
COc1ccc2oc(-c3ccc(N)nn3)cc2c1 [6-(5-Methoxy-benzofuran-2-yl)-pyridazin-3-ylamine] | 0.912
CNc1ccc(-c2cc3cc(OC)ccc3o2)cn1 [[5-(5-Methoxy-benzofuran-2-yl)-pyridin-2-yl]-methylamine] | 0.066
